Patent publication US11142518B2, “6-pyrimidin-isoindole derivative as ERK1/2 inhibitor” (OTSUKA PHARMACEUTICAL CO., LTD., priority 2017, dated 2021)
Converted amounts (≈) assume the structure as drawn. Read-outs that look alike come from different tables or passages of the source.

Experiments:
[1] = Solubility determinations in purified water and buffers; format: physicochemical; conditions: for solubility at 24 h: 18 °C, read-out: Measured solubilities (mg/ml), bound; for solubility at 24 h / Measured solubilities (mg/ml), value in brackets / Measured solubilities (mg/ml), bound: 18-23° C., t = 24 h
Method: The solubilities of crystalline form B and the amorphous form of the compound of formula (1) were determined in purified water and buffers at the same concentration up to 24 h stir time at 18 to 23° C.
The samples of the compound of formula (1) (50 mg) were each suspended in purified water (2 mL) or the appropriate buffer and stirred at ambient temperature (18-23° C.) for 20 to 24 h. After this time the slurries were centrifuged, diluted if appropriate by HPLC sample diluent (acetonitrile/water, 1/1, v/v) and analysed by HPLC peak area. The measured values were compared against a relevant calibration curve for the compound of formula (1). The approximate solubilities were calculated and compensation factors were applied for the appropriate dilution factors and % w/w assays. The dilution factor ensured that the peak area values fell within the desired calibration curve ranges.
The plug of solid that remained in the centrifuge tube was dried in vacuum oven and analysed by XRPD.
The preparations of the buffers used in the study are described below:
pH 1.2—Mix 50 mL of 0.2M potassium chloride solution with 85 mL of 0.2M hydrochloric acid solution.
pH 2—Mix 50 mL of 0.2M potassium chloride solution with 13 mL of 0.2M hydrochloric acid solution.
pH 3—Mix 100 mL of 0.1M potassium hydrogen phthalate with 44.6 mL of 0.1M hydrochloric acid solution.
pH 4—Mix 100 mL of 0.1M potassium hydrogen phthalate with 0.2 mL of 0.1M hydrochloric acid solution.
pH 5—Mix 100 mL of 0.1M potassium hydrogen phthalate with 45.2 mL of 0.1M sodium hydroxide solution.
pH 6—Mix 100 mL of 0.1M potassium dihydrogen orthophosphate with 11.2 mL of 0.1M sodium hydroxide solution.
pH 7—Mix 100 mL of 0.1M potassium dihydrogen orthophosphate with 58.2 mL of 0.1M sodium hydroxide solution.
pH 8—Mix 100 mL of 0.1M potassium dihydrogen orthophosphate with 93.4 mL of 0.1M sodium hydroxide solution.

[2] = Solubility determinations in non-aqueous solvents; format: physicochemical; conditions: for solubility at 72 h: organic solvent or mixture, thermodynamic from solid, read-out: Estimated maximum solubilities (mg/ml), at 18 to 23° C.
Method: Form B of Compound (1), prepared as described in Example 3, was charged to the appropriate solvent (2 ml) at intervals of approximately 1 hour. The solutions were purposefully saturated and allowed to stir over 72 h at 18 to 23° C. After this time, the suspensions were centrifuged, their supernatants were sampled, diluted accordingly and the peak areas of the corresponding analytes were measured by HPLC and compared against those of the standard calibrants. The approximate solubilities were calculated and solubilities were physically checked on an anhydrous solvent free basis to confirm that the results were consistent.
The saturated solutions were centrifuged and 100 μl of the clarified supernatant was added to 250 ml volumetric (ethanol) or 100 ml volumetrics (remainder) and made to volume with sample diluent. The diluted samples were then analysed by HPLC peak area and the estimated maximum solubilities were calculated and are reported in the table below.
To confirm the estimated solubilities were of the right order of magnitude solutions were prepared up to the estimated maximum measured concentrations and the mixtures were stirred overnight under the same conditions to confirm dissolution.

[3] = system: Human melanoma cell line A375; assay: Anti-proliferative activity (Alamar Blue); format: cell-based; conditions: A-375, 96 h, A375 cells, 4 days incubation
Method: The anti-proliferative activities of the compound of the invention was determined by measuring the ability of the compound of formula (1) to inhibit growth in the Human melanoma cell line A375.
Cell proliferation was determined by measuring the conversion of rezasurin (Alamar Blue) to resorufin in reponse to mitochondrial activity (Nociari, M. M, Shalev, A., Benias, P., Russo, C. Journal of Immunological Methods 1998, 213, 157-167). A375 cells (American Type Culture Collection, Teddington, UK) were grown in Dulbecco's Modified Eagle Medium+10% FBS. Each well of a black 96-well flat-bottomed plate was seeded with 2×10^3 cells in 200 μl of complete culture medium one day before the compound treatment. Cells were incubated with compound in 0.1% (v/v) dimethyl sulfoxide (DMSO) for 4 days before addition of 20 μl Alamar blue. After a further 6 h incubation at 37° C. the plate was read on a Spectramax Gemini reader (Molecular Devices; excitation 535 nm, emission 590 nm). GI50 values were calculated using a sigmoidal dose response equation (Prism GraphPad software, La Jolla, Calif., USA).

SMILES: COc1cc(F)cc([C@@H](CO)NC(=O)[C@@H](C)N2Cc3ccc(-c4nc(NC5CCOCC5)ncc4Cl)cc3C2=O)c1 [(2R)-2-(6-{5-chloro-2-[(oxan-4-yl)amino]pyrimidin-4-yl}-1-oxo-2,3-dihydro-1H-isoindol-2-yl)-N-[(1S)-1-(3-fluoro-5-methoxyphenyl)-2-hydroxyethyl]propanamide]
- solubility ([1]; buffers at pH 1.2 to 8.0, 20.5 °C, pH 1.2, aqueous buffer, thermodynamic from solid, buffers at pH 1.2 to 8.0, read-out: Solubility in buffers (conclusion: practically insoluble)): < 100 µg/mL
- solubility at 24 h ([1]; pH 1.2 buffer, pH 1.2, simulated gastric fluid, thermodynamic from solid, pH 1.2 Buffer): ≥ 0.1 mg/mL
- solubility at 24 h ([1]; pH 2 buffer, pH 2, simulated gastric fluid, thermodynamic from solid, pH 2 Buffer): < 0.1 mg/mL
- solubility at 24 h ([1]; pH 3 buffer, pH 3, aqueous buffer, thermodynamic from solid, pH 3 Buffer): < 0.1 mg/mL
- solubility at 24 h ([1]; pH 4 buffer, pH 4, aqueous buffer, thermodynamic from solid, pH 4 Buffer): < 0.1 mg/mL
- solubility at 24 h ([1]; pH 5 buffer, pH 5, aqueous buffer, thermodynamic from solid, pH 5 Buffer): < 0.1 mg/mL
- solubility at 24 h ([1]; pH 6 buffer, pH 6, aqueous buffer, thermodynamic from solid, pH 6 Buffer): < 0.1 mg/mL
- solubility at 24 h ([1]; pH 7 buffer, pH 7, aqueous buffer, thermodynamic from solid, pH 7 Buffer): < 0.1 mg/mL
- solubility at 24 h ([1]; pH 8 buffer, pH 8, aqueous buffer, thermodynamic from solid, pH 8 Buffer): < 0.1 mg/mL
- solubility at 24 h ([1]; purified water, water, thermodynamic from solid, Purified water): < 0.1 mg/mL
- solubility at 72 h ([2]; PEG 400, 18 °C): 229 mg/mL (≈ 392000 µM)
- solubility at 72 h ([2]; ethanol, 18 °C): 337 mg/mL (≈ 577000 µM)
- solubility at 72 h ([2]; glycerol, 18 °C): 5 mg/mL (≈ 8560 µM)
- solubility at 72 h ([2]; propylene glycol, 18 °C): 289 mg/mL (≈ 495000 µM)

SMILES: COc1cc(F)cc([C@@H](CO)NC(=O)[C@@H](C)N2Cc3ccc(-c4nc(NC5CCOCC5)ncc4Cl)cc3C2=O)c1 [Amorphous Form of the Compound of Formula (1)] [(2R)-2-(6-{5-chloro-2-[(oxan-4-yl)amino]pyrimidin-4-yl}-1-oxo-2,3-dihydro-1H-isoindol-2-yl)-N-[(1S)-1-(3-fluoro-5-methoxyphenyl)-2-hydroxyethyl]propanamide]
- Measured solubilities (mg/ml), value in brackets ([1]; Purified water): (0.0234 mg/ml
- Measured solubilities (mg/ml), value in brackets ([1]; pH 1.2 Buffer): (0.1249 mg/ml
- Measured solubilities (mg/ml), value in brackets ([1]; pH 2 Buffer): (0.0226 mg/ml
- Measured solubilities (mg/ml), value in brackets ([1]; pH 3 Buffer): (0.0257 mg/ml
- Measured solubilities (mg/ml), value in brackets ([1]; pH 4 Buffer): (0.0418 mg/ml
- Measured solubilities (mg/ml), value in brackets ([1]; pH 5 Buffer): (0.0268 mg/ml
- Measured solubilities (mg/ml), value in brackets ([1]; pH 6 Buffer): (0.0149 mg/ml
- Measured solubilities (mg/ml), value in brackets ([1]; pH 7 Buffer): (0.0136 mg/ml
- Measured solubilities (mg/ml), value in brackets ([1]; pH 8 Buffer): (0.0138 mg/ml

SMILES: COc1cc(F)cc([C@@H](CO)NC(=O)[C@@H](C)N2Cc3ccc(-c4nc(NC5CCOCC5)ncc4Cl)cc3C2=O)c1 [Crystalline Form B of the Compound of Formula (1)] [(2R)-2-(6-{5-chloro-2-[(oxan-4-yl)amino]pyrimidin-4-yl}-1-oxo-2,3-dihydro-1H-isoindol-2-yl)-N-[(1S)-1-(3-fluoro-5-methoxyphenyl)-2-hydroxyethyl]propanamide]
- Measured solubilities (mg/ml), bound ([1]; Purified water): <0.1 mg/mL
- Measured solubilities (mg/ml), bound ([1]; pH 1.2 Buffer): <0.1 mg/mL
- Measured solubilities (mg/ml), bound ([1]; pH 2 Buffer): <0.1 mg/mL
- Measured solubilities (mg/ml), value in brackets ([1]; pH 2 Buffer): (0.0034 mg/ml
- Measured solubilities (mg/ml), bound ([1]; pH 3 Buffer): <0.1 mg/mL
- Measured solubilities (mg/ml), value in brackets ([1]; pH 3 Buffer): (0.0045 mg/ml
- Measured solubilities (mg/ml), bound ([1]; pH 4 Buffer): <0.1 mg/mL
- Measured solubilities (mg/ml), value in brackets ([1]; pH 4 Buffer): (0.0049 mg/ml
- Measured solubilities (mg/ml), bound ([1]; pH 5 Buffer): <0.1 mg/mL
- Measured solubilities (mg/ml), value in brackets ([1]; pH 5 Buffer): (0.0031 mg/ml
- Measured solubilities (mg/ml), bound ([1]; pH 6 Buffer): <0.1 mg/mL
- Measured solubilities (mg/ml), value in brackets ([1]; pH 6 Buffer): (0.0027 mg/ml
- Measured solubilities (mg/ml), bound ([1]; pH 7 Buffer): <0.1 mg/mL
- Measured solubilities (mg/ml), value in brackets ([1]; pH 7 Buffer): (0.0017 mg/ml
- Measured solubilities (mg/ml), bound ([1]; pH 8 Buffer): <0.1 mg/mL
- Measured solubilities (mg/ml), value in brackets ([1]; pH 8 Buffer): (0.0020 mg/ml

SMILES: COc1cc(F)cc([C@@H](CO)NC(=O)[C@@H](C)N2Cc3ccc(-c4nc(NC5CCOCC5)ncc4Cl)cc3C2=O)c1 [compound of formula (1), (2R)-2-(6-{5-chloro-2-[(oxan-4-yl)amino]pyrimidin-4-yl}-1-oxo-2,3-dihydro-1H-isoindol-2-yl)-N-[(1S)-1-(3-fluoro-5-methoxyphenyl)-2-hydroxyethyl]propanamide]
- GI50 [3]: 3.4 nM
- Solubility in ethanol, PEG 400 and propylene glycol compared with water ([2]; ethanol, PEG 400 and propylene glycol than in water): significantly greater solubility
